The test system of the assay is 24 h food-deprived Wistar rats. The experiment in a line: Acute feeding study: cumulative food intake after i.p. or oral administration. The class given is in vivo. The protocol:
The experiments were performed on male Wistar rats weighing 300-350 g. The animals were housed individually under a 12 h light/dark cycle in a room with temperature and humidity control. The rats had ad libitum access to food and water, except during the feeding studies. Prior to the experiments, animals were acclimated to the handling.
For the acute feeding studies, the nanoemulsion G-F68 or Tween 20 were prepared in 5% in saline.
Regarding the acute studies with OEA, the drug was obtained from Tocris Bioscience (Bristol, UK). It was administered in a solution contained the nanoemulsion G-F68 (5%) and saline (95%) prepared in fresh the same day of the experiment. The doses tested were: • a) 1, 5 and 10 mg/kg of OEA for the intraperitoneal acute studies. The volume of the administration was 1 ml/kg. • b) 1, 10 and 50 mg/kg of OEA for the oral acute studies. The volume of the administration was 3 ml/kg.
The hypophagic actions of the N-acylethanolamine OEA were evaluated using the nanoemulsion G-F68 as delivery system (vehicle). For these experiments, we used animals habituated to the experimental protocols. To this end, 48 h before each experiment, the bedding was removed and replaced by small food containers into the cage for 4 h. After this initial phase, the animals were deprived of food for 24 h, but had free access to water. The different treatments were administered 15 min prior access to food. Animals were then returned to their home cages and a measured amount of food (30-40 g) was placed into the cages (t = 0 h). Food pellets were weighed at time intervals of 15, 30, 60, 120 and 240 min, and 24 h after the acute treatment.

In the case of `CCCCCCCC/C=C\CCCCCCCC(=O)NCCO` [OEA, N-oleoylethanolamine], the food intake result is, setting by setting: (OEA 1 mg/kg oral (i.g., 3 ml/kg) in G-F68, vs G-F68 group, p<0.01 at 240 min) “significant decrease in food intake”; (OEA 5 mg/kg i.p. in G-F68 (5% in saline), vs nanoemulsion group, p<0.001 at 15 min, p<0.05 at 30 min) “significant reduction on food intake”; (OEA 10 mg/kg i.p. in G-F68 (5% in saline), vs nanoemulsion group, p<0.001 at 15, 30 and 60 min) “significant reduction on food intake”; (OEA 10 mg/kg oral (i.g., 3 ml/kg) in G-F68, vs G-F68 group, p<0.05 at 240 min) “significant decrease in food intake”; (OEA 50 mg/kg oral (i.g., 3 ml/kg) in G-F68, vs G-F68 group, significant at 15, 30, 60, 120, 240 min and 24 h) “significant decrease in food intake”; (OEA 50 mg/kg oral (i.g., 3 ml/kg) prepared in Tween 20, vs vehicle Tween 20 group, p<0.05) “significant decrease in food intake only at 30 and 60 min”. Further, the feeding entry (OEA 50 mg/kg oral (i.g., 3 ml/kg) within nanoemulsion G-F68, vs its vehicle group (Figure 7), 15 min to 24 h) was “prolonged and significant reduction of feeding at all times”. For the setting “OEA i.p., the different doses (1, 5, 10 mg/kg) in G-F68, 24 h after administration, vs vehicle group”, the cumulative food intake entry is given as “no effects on cumulative food intake”.

For the origin of these results see patent EP2985276A1, “FORMULATIONS BASED ON NANOEMULSIONS AND THE USE THEREOF FOR TREATING OBESITY” (Fundación Pública Andaluza Para La Investigación de Malaga …, priority 2013, dated 2014).
